Where two headings read alike, the source gives them in different places.
Tests used:
PAD4 [1] = target: T1, PAD4 (Homo sapiens, UniProt Q9UM07); test: IC50 assays (Example 2); type: biochemical; details: for IC50: 10 mM BAEE; for inhibition at the highest concentration tested: 500 μM
PAD4 [2] = target: T1, PAD4; test: Time course inhibition assays (Example 1); details: 10 mM BAEE, 10 mM CaCl2
PAD4 [3] = target: T1, PAD4; test: Time course assays / inactivation kinetics (Example 2); type: biochemical; details: 2 mM BAEE
PAD4 [4] = target: T1, PAD4; test: H3-amidine inhibition assays; type: biochemical; details: BAEE substrate; 0, 5, 10 mM H3-amidine; read-out: Kis (linear competitive inhibition)
Protocol: Initial rates were determined in the absence and presence of various amounts of H3-amidine (0, 5, 10 mM), using BAEE as the substrate. […] After incubation at 37° C. for 15 min, the reactions were quenched and the amount of Cit produced quantified. The initial rates derived from these experiments were fit by non-linear least fit squares to equations representing linear competitive inhibition (Equation 4) and linear noncompetitive inhibition (Equation 5), using the using the GraFit™ version 5.0.11 software package. v=Vm[S]/(Km(1+[I]/Kis)+[S]) (Eq. 4) v=Vm[S]I(Km(1+[I]/Kis)+[S](1+[I]/Kii)) (Eq. 5)
Kii represents Ki intercept and Kis represents Ki slope. Comparisons of the standard errors derived from fits of the data to Equations 4 and 5 are most consistent with H3-amidine being a competitive inhibitor.

PAD4 [5] = details: known PAD inhibitor; cited from earlier work
PAD4 [6] = target: T1, PAD4; test: Inhibition assays with compound 1 (mode of inhibition, BAEE substrate); type: biochemical; details: 0, 5, 10 mM compound 1, read-out: Kis (linear competitive inhibition)
PAD4 [7] = target: T1, PAD4; test: IC50 assays of compounds 1, 2 and 3 (Example 1); details: pre-incubation with PAD4 and Ca2+ (10 mM) for 10 min; BAEE 1 mM final; 20 min
PAD4 [8] = target: T1, PAD4; details: cited from earlier work
[9] = preincubation with PAD4 in 10 mM calcium for 15 min, read-out: IC50

T1 sequence (Q9UM07 whole entry): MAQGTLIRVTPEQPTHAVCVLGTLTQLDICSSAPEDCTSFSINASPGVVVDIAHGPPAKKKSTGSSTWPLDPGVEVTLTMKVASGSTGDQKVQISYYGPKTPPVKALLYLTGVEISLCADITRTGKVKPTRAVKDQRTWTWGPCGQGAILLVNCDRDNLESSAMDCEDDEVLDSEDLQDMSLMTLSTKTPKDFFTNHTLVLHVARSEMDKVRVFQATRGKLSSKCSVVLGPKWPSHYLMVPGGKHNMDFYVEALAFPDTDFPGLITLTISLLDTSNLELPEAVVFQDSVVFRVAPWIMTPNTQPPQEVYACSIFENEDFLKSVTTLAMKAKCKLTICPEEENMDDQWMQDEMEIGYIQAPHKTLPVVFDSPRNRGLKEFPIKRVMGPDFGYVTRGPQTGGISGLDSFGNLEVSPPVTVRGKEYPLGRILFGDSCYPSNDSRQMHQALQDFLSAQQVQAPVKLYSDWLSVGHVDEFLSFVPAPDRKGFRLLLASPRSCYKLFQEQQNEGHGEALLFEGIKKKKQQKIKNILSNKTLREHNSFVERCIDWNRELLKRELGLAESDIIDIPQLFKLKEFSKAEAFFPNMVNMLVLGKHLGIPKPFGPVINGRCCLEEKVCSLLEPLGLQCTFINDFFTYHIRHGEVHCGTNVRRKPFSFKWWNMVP

Row | Compound | IC50 (PAD4 [1]; [9]) | time course of product formation (PAD4 [3]) | further results
1 | N=C(CF)NCCC[C@H](NC(=O)c1ccccc1)C(N)=O [F3-amidine, N-α-benzoyl-N^5-(2-fluoro-1-iminoethyl)-L-ornithine amide] |  |  | time dependence of inhibition (progress curves) (PAD4 [2]): time dependent inhibition properties
2 | N=C(CCl)NCC[C@H](NC(=O)c1ccccc1)C(N)=O [Cl2-amidine, N-α-benzoyl-N^4-(2-chloro-1-iminoethyl)-L-Dab amide] | 585 ± 65 µM |  | 
3 | NC(=O)[C@H](CCCNC(=O)CCl)NC(=O)c1ccccc1 [Cl3-acetamide, N-α-benzoyl-N^5-(2-chloroacetyl)-L-Orn amide] | > 500 µM |  | inhibition at the highest concentration tested (PAD4 [1]): no inhibition
4 | NC(=O)[C@H](CCCNC(=O)CF)NC(=O)c1ccccc1 [F3-acetamide, N-α-benzoyl-N^5-(2-fluoroacetyl)-L-Orn amide] |  |  | inhibition at the highest concentration tested (PAD4 [1]): no inhibition; IC50 (PAD4 [1]; IC50, preincubation with PAD4 in 10 mM calcium for 15 min): > 500 µM
5 | CC(=O)O[C@H]1C(=O)[C@@]2(C)[C@H]([C@H](OC(=O)c3ccccc3)[C@]3(O)C[C@H](OC(=O)[C@H](O)[C@@H](NC(=O)c4ccccc4)c4ccccc4)C(C)=C1C3(C)C)[C@]1(OC(C)=O)CO[C@@H]1C[C@@H]2O [taxol] |  |  | IC50 (PAD4 [5]): ~5000 µM
6 | CC(=N)NCCC[C@H](NC(=O)c1ccccc1)C(=O)O [H-Amidine, N-α-benzoyl-N^5-(1-iminoethyl)-L-ornithine] |  |  | Ki (PAD4 [6]): 1700 ± 200 µM; time dependence of inhibition (progress curves) (PAD4 [2]): does not display time dependent inhibitory properties; IC50 (PAD4 [7]): 4300 ± 700 µM
7 | N=C(N)CCl [2-chloroacetamidine] |  |  | Ki (PAD4 [8]): 20000 µM; kinact/KI (PAD4 [8]; reported by the Fast group): 0.583 M⁻¹ s⁻¹

Second part, led by results:

Row | IC50 (PAD4 [1]; [9]) | time course of product formation (PAD4 [3]) | Compound | further results
8 | 655 ± 100 µM |  | N=C(CF)NCCCC[C@H](NC(=O)c1ccccc1)C(N)=O [F4-amidine, N-α-benzoyl-N^6-(2-fluoro-1-iminoethyl)-L-Lys amide] | 
9 | 640 ± 10 µM |  | N=C(CCl)NCCCC[C@H](NC(=O)c1ccccc1)C(N)=O [Cl4-amidine, N-α-benzoyl-N^6-(2-chloro-1-iminoethyl)-L-Lys amide] | 
10 | > 1000 µM | linear with respect to time | CC(=N)NCC[C@H](NC(=O)c1ccccc1)C(N)=O [H2-amidine, N-α-benzoyl-N^4-(1-iminoethyl)-L-Dab amide] | 
11 | > 1000 µM | linear with respect to time | CC(=N)NCCCC[C@H](NC(=O)c1ccccc1)C(N)=O [H4-amidine, N-α-benzoyl-N^6-(1-iminoethyl)-L-Lys amide] | 
12 | > 1000 µM | linear with respect to time | N=C(CF)NCC[C@H](NC(=O)c1ccccc1)C(N)=O [F2-amidine, N-α-benzoyl-N^4-(2-fluoro-1-iminoethyl)-L-Dab amide] | observed activity (PAD4 [1]; at 1000 μM): 93 % of control
13 | > 1000 µM | linear with respect to time | CC(=N)NCCC[C@H](NC(=O)c1ccccc1)C(N)=O [H3-amidine, N-α-benzoyl-N^5-(1-iminoethyl)-L-Orn amide] | Ki (PAD4 [4]): 3200 ± 900 µM

— patent US7964636B2, “Synthesis and use of novel inhibitors and inactivators of protein arginine deiminases” (University of South Carolina, priority 2005, dated 2011)
